Laboratory results taken from ChEMBL document CHEMBL3871303, “In vivo and in silico anti-inflammatory mechanism of action of the semisynthetic (-)-cubebin derivatives (-)-hinokinin and (-)-O-benzylcubebin” (2017).

Tests used:
Type in all cases: functional
Rattus norvegicus [1] = test: Antiinflammatory activity in Wistar rat assessed as inhibition of dextran-induced paw edema administered orally 30 mins prior to dextran treatment measured after 3 hrs
Rattus norvegicus [2] = test: Antiinflammatory activity in Wistar rat assessed as inhibition of dextran-induced paw edema at 40 mg/kg, po administered 30 mins prior to dextran treatment measured after 3 hrs
Rattus norvegicus [3] = test: Antiinflammatory activity in Wistar rat assessed as inhibition of PGE2-induced paw edema at 40 mg/kg, po administered 30 mins prior to PGE2 treatment measured after 3 hrs
Rattus norvegicus [4] = test: Antiinflammatory activity in Wistar rat assessed as inhibition of PGE2-induced paw edema at 10 mg/kg, po administered 30 mins prior to PGE2 treatment measured after 3 hrs

| SMILES | inhibition (INH) (Rattus norvegicus [1]) | inhibition in vivo at 40 mg/kg (Rattus norvegicus [2]) | inhibition in vivo at 40 mg/kg (Rattus norvegicus [3]) | inhibition in vivo at 10 mg/kg (Rattus norvegicus [4]) |
| --- | --- | --- | --- | --- |
| CN1CCC(=C2c3ccccc3C=Cc3ccccc32)CC1 [CYPROHEPTADINE] | 56% | – | – | – |
| c1ccc(COC2OC[C@@H](Cc3ccc4c(c3)OCO4)[C@@H]2Cc2ccc3c(c2)OCO3)cc1 (stereo partly specified) | – | 3.5% | 66% | – |
| O=C1OC[C@@H](Cc2ccc3c(c2)OCO3)[C@@H]1Cc1ccc2c(c1)OCO2 | – | 18.3% | 59.2% | – |
| COc1ccc2c(c1)c(CC(=O)O)c(C)n2C(=O)c1ccc(Cl)cc1 [INDOMETHACIN] | – | – | – | 54% |
